Measured values as given in patent EP4141110A1 (priority 2020, dated 2021).
Several values for one entry are separate records, joined by “and”; a condition that tells them apart may be missing. Equal entries are not always repeated.

Key:
[1] = tested on: mice; settings: mouse, in vivo
[2] = tested on: PC3 line; assay type: cell-based
[3] = tested on: cell cultures

SMILES	Therapeutic ratio × 10^-7 [1]	% of PC3 death in the mixture with iRGD + 6APA ligand [2]	daggl [3] [pg/dL]	DCL [1] [µg/dL]	dCL/ daggl [1]
[Cl][Pt-2]([Cl])([Cl])([Cl])([Cl])[Cl].[NH4+].[NH4+] [(NH4)2[PtCl6], ammonium hexachloroplatinate (IV)]	5 × 10^-7	95% and 92% and 90%	–	–	–
O=[N+]([O-])[O-].[Ag+] [AgNO3]	180 × 10^-7	80% and 75% and 65%	–	–	–
O=S(=O)(O)[S-].O=S(=O)(O)[S-].[Au].[Na+].[Na+].[Na+] [AuH2Na3O6S4, aurothiosulfate]	50 × 10^-7	75% and 70% and 56%	–	–	–
O=[N+]([O-])[O-].O=[N+]([O-])[O-].[Cu+2] [Cu(NO3)2]	25 × 10^-7	85% and 82% and 65%	–	–	–
O=[N+]([O-])[O-].O=[N+]([O-])[O-].O=[N+]([O-])[O-].[Ga+3] [Ga(NO3)3, gallium trinitrate]	9.2 × 10^-7	90% and 82% and 75%	20	35	8
[Na+].[O]=[V](=[O])[O-] [NaVO3]	67 × 10^-7	70% and 55% and 40%	1	2.0	1
O=C([O-])[O-].O=C([O-])[O-].O=C([O-])[O-].[Tl+3].[Tl+3] [Tl2(CO3)3]	14.6 × 10^-7	95% and 92% and 89%	9	19	0.5
O=C([O-])[O-].[Tl+].[Tl+] [Tl2CO3]	13.1 × 10^-7	95% and 85% and 80%	12	21	2
O=[N+]([O-])[O-].O=[N+]([O-])[O-].[Zn+2] [Zn(NO3)2]	50 × 10^-7	–	–	–	–
N.N.[Cl][Pt][Cl] [cisplatin (cis-Pt(N H3)2 Cl2), cisplatin (cis-dichlorodiamminplatin) (II), reference compound]	7 × 10^-7	95% and 88% and 82%	2	3.5	5
